# Test results taken from patent US20240366608A1, “PHARMACEUTICAL COMBINATIONS OF SOS1 INHIBITORS FOR TREATING AND/OR PREVENTING CANCER” (Lupin Limited, priority 2021, published 2024).
# What was measured:
# [1] = test system: MIA PaCa-2 or SW1990 pancreatic cancer cells; experiment: Colony formation assay, SOS1 inhibitor combined with targeted agents; assay type: cell-based, human; details: 7 days of drug treatment, crystal violet absorbance at 590 nm; combined with one or more of the agents listed
# Description: Compound 1, 2, 3, 3a, 3b, 4, 4a, 4b, 5, 6, 6a, 6b and 7 were tested for inhibition of colony formation potential in combination with one or more of the following agents in MIA PaCa-2 or SW1990 pancreatic cancer cells: • EGFR inhibitor: Afatinib, KRAS-G12C inhibitor: AMG 510, KRAS-G12C inhibitor: MRTX849, KRAS-G12D inhibitor: MRTX1133, ERK1/2 inhibitor: LY3214996 and BVD-523, BRAF inhibitor: Encorafenib, pan-RAF inhibitor: LXH254, PRMT5 inhibitor: compound 24 of WO 2019116302, Type I PRMT inhibitor: GSK3368715, PI3K inhibitor: BYL719, FGFR inhibitor: Nintedanib, CDK4/6 inhibitor: Abemaciclib, and other chemotherapeutic agent: Gemcitabine.
# Colony formation assay: MIA PaCa-2 cells or SW1990 cells were seeded at 500 cells per well or 1500 cells/well, respectively in 48 well tissue culture plate and cells were allowed to settle overnight (16 to 20 h). On the following day, cells were treated with various concentrations of targeted agents to generate IC50 with or without increasing concentrations of SOS1 inhibitor (as depicted in the figures), and the assay plates were incubated under normal cell culture conditions. After 7 days of drug treatment, media was removed from each well and plates were washed with PBS. Cell colonies were stained with crystal violet solution for 2-5 min. Plate was then washed carefully under tap water and air dried. For quantitation, 200 μL destaining solution containing 10% Glacial acetic acid was added to each well and stained colonies were allowed to solubilize for 20-30 min on plate shaker. After solubilization, absorbance of the extracted stain was recorded in BioTek Synergy Neo U plate reader at 590 nm. Absorbance values were directly proportional to colony growth.
# [2] = test system: MIA PaCa-2 human pancreatic cancer xenograft; experiment: In vivo efficacy, Compound 4b combined with Afatinib or Compound 24 of WO 2019116302, xenograft; parameters: species or system nude mice; details: single agent: Compound 4b 15 mg/kg b.i.d.; Afatinib 12.5 mg/kg q.d.; Compound 24 of WO 2019116302 1.0 mg/kg b.i.d.
# [3] = test system: MIA PaCa-2 human pancreatic cancer xenograft; experiment: In vivo efficacy, Compound 1 or 4b combined with AMG 510, xenograft; parameters: species or system nude mice; details: single agent; for tumor growth inhibition: 30 mg/kg b.i.d.
# [4] = test system: MIA PaCa-2 human pancreatic cancer xenograft; experiment: In vivo efficacy, Compound 7 combined with AMG 510, xenograft; parameters: species or system nude mice; details: single agent
# Description: MIA PaCa-2 tumor fragments were implanted subcutaneously in the right flank region of nude mice. Tumor-bearing mice were randomized once the tumors reached an average volume of ˜155-164 mm^3 (tumor volume range 66-298 mm^3).
# MIA PaCa-2 xenograft = experiment: In vivo efficacy, Compound 5 combined with Compound 24 of WO 2019116302, xenograft; parameters: species or system nude mice; details: single agent: Compound 5 50 mg/kg b.i.d.; Compound 24 of WO 2019116302 dose not given
# Description: Compound 5 was tested in combination with Compound 24 of WO 2019116302 in vivo in MIA PaCa-2 xenograft model in nude mice.
# 20×10^6 MIA PaCa-2 cells were injected subcutaneously in the presence of PBS and Matrigel in 1:1 ratio in nude mice.
# [5] = test system: MIA PaCa-2 human pancreatic cancer xenograft; experiment: In vivo efficacy, Compound 7 combined with LXH254, xenograft; parameters: species or system nude mice; details: single agent: Compound 7 5 mg/kg q.d.; LXH254 50 mg/kg b.i.d.
# [6] = test system: MIA PaCa-2 human pancreatic cancer xenograft; experiment: In vivo efficacy, Compound 7 combined with Afatinib, Compound 24 of WO 2019116302 or Ulixertinib, xenograft; parameters: species or system nude mice; details: single agent, Compound 7 15 mg/kg b.i.d.
smiles,measurement,setting,value
"COC1(C)C(=O)N(C)c2cc3c(N[C@H](C)c4cccc(C(F)(F)C(C)(C)O)c4F)nc(C)nc3cc21 (mixture of isomers) [Compound 4, (R&S)-4-(((R)-1-(3-(1,1-difluoro-2-hydroxy-2-methylpropyl)-2-fluorophenyl)ethyl)amino)-8-methoxy-2,6,8-trimethyl-6,8-dihydro-7H-pyrrolo[2,3-g]quinazolin-7-one]",potentiation of activity of combination agents leading to inhibition of colony forming activity,[1],significant potentiation
"COC1(C)C(=O)N(C)c2cc3nc(C)nc(N[C@H](C)c4cccc(C(F)(F)C(C)(C)O)c4F)c3cc21 (mixture of isomers) [Compound 6, (R&S)-4-(((R)-1-(3-(1,1-difluoro-2-hydroxy-2-methylpropyl)-2-fluorophenyl)ethyl)amino)-6-methoxy-2,6,8-trimethyl-6,8-dihydro-7H-pyrrolo[3,2-g]quinazolin-7-one]",potentiation of activity of combination agents leading to inhibition of colony forming activity,[1],significant potentiation
"CO[C@]1(C)C(=O)N(C)c2cc3nc(C)nc(N[C@H](C)c4cccc(C(F)(F)C(C)(C)O)c4F)c3cc21 (racemic) [Compound 6a, (S/R)-4-(((R)-1-(3-(1,1-difluoro-2-hydroxy-2-methylpropyl)-2-fluorophenyl)ethyl)amino)-6-methoxy-2,6,8-trimethyl-6,8-dihydro-7H-pyrrolo[3,2-g]quinazolin-7-one]",potentiation of activity of combination agents leading to inhibition of colony forming activity,[1],significant potentiation
"Cc1nc(NC(C)c2cccc(C(F)(F)C(C)(C)O)c2)c2cc3c(cc2n1)C(C)(C)C(=O)N3C (single isomer, unassigned) [Compound 2, (R/S)-4-((1-(3-(1,1-difluoro-2-hydroxy-2-methylpropyl)phenyl)ethyl)amino)-2,6,8,8-tetramethyl-6,8-dihydro-7H-pyrrolo[2,3-g]quinazolin-7-one]",potentiation of activity of combination agents leading to inhibition of colony forming activity,[1],significant potentiation
"Cc1nc(N[C@H](C)c2cccc(C(F)(F)C(C)(O)CO)c2F)c2cc3c(cc2n1)C(C)(C)C(=O)N3C (single isomer, unassigned) [Compound 3a]",potentiation of activity of combination agents leading to inhibition of colony forming activity,[1],significant potentiation
"Cc1nc(N[C@H](C)c2cccc(C(F)(F)[C@@](C)(O)CO)c2F)c2cc3c(cc2n1)C(C)(C)C(=O)N3C (single isomer, unassigned) [Compound 3b]",potentiation of activity of combination agents leading to inhibition of colony forming activity,[1],significant potentiation
"CO[C@]1(C)C(=O)N(C)c2cc3c(N[C@H](C)c4cccc(C(F)(F)C(C)(C)O)c4F)nc(C)nc3cc21 (single isomer, unassigned) [Compound 4a]",potentiation of activity of combination agents leading to inhibition of colony forming activity,[1],significant potentiation
"COC1(C)C(=O)N(C)c2cc3c(N[C@H](C)c4cccc(C(F)(F)C(C)(C)O)c4F)nc(C)nc3cc21 (single isomer, unassigned) [Compound 4b]",tumor growth inhibition,[2],47%
same,potentiation of activity of combination agents leading to inhibition of colony forming activity,[1],significant potentiation
same,tumor growth inhibition,[3],65.71±7.41%
"COC1(C)C(=O)N(C)c2cc3nc(C)nc(N[C@H](C)c4cccc(C(F)(F)C(C)(C)O)c4F)c3cc21 (single isomer, unassigned) [Compound 6b]",potentiation of activity of combination agents leading to inhibition of colony forming activity,[1],significant potentiation
"C=CC(=O)N1CCN(c2nc(=O)n(-c3c(C)ccnc3C(C)C)c3nc(-c4c(O)cccc4F)c(F)cc23)[C@@H](C)C1 [AMG 510, 4-((S)-4-acryloyl-2-methylpiperazin-1-yl)-6-fluoro-7-(2-fluoro-6-hydroxyphenyl)-1-(2-isopropyl-4-methylpyridin-3-yl)pyrido[2,3-d]pyrimidin-2(1H)-one, reference compound]",inhibition in tumor growth,[4]; AMG 510 3 mg/kg q.d.,77.69%
same,tumor regression,[3]; AMG 510 10 mg/kg q.d.,39.43±15.22%
"CN(C)C/C=C/C(=O)Nc1cc2c(Nc3ccc(F)c(Cl)c3)ncnc2cc1O[C@H]1CCOC1 [Afatinib, (S,E)-N-(4-((3-chloro-4-fluorophenyl)amino)-7-((tetrahydrofuran-3-yl)oxy)quinazolin-6-yl)-4-(dimethylamino)but-2-enamide]",tumor growth inhibition,[2],38%
"Cc1nc(N[C@H](C)c2cccc(C(F)(F)C(C)(C)O)c2F)c2cc3c(cc2n1)C(C)(C)C(=O)N3C [Compound 1, (R)-4-((1-(3-(1,1-Difluoro-2-hydroxy-2-methylpropyl)-2-fluorophenyl)ethyl)amino)-2,6,8,8-tetramethyl-6,8-dihydro-7H-pyrrolo[2,3-g]quinazolin-7-one]",potentiation of activity of combination agents leading to inhibition of colony forming activity,[1],significant potentiation
same,tumor growth inhibition,[3],63.82±8.32%
"Cc1nc(N[C@H](C)c2cccc(C(F)(F)C(C)(O)CO)c2F)c2cc3c(cc2n1)C(C)(C)C(=O)N3C (stereo partly drawn) [Compound 3, 4-(((R)-1-(3-((R&S)-1,1-Difluoro-2,3-dihydroxy-2-methylpropyl)-2-fluorophenyl)ethyl)amino)-2,6,8,8-tetramethyl-6,8-dihydro-7H-pyrrolo[2,3-g]quinazolin-7-one]",potentiation of activity of combination agents leading to inhibition of colony forming activity,[1],significant potentiation
"Cc1nc(N[C@H](C)c2cc(N)cc(C(F)(F)F)c2)c2cc(-c3ccc(=O)n(C)c3)c3c(c2n1)CCC3 [Compound 5, (R)-5-(4-((1-(3-amino-5-(trifluoromethyl)phenyl)ethyl)amino)-2-methyl-8,9-dihydro-7H-cyclopenta[h]quinazolin-6-yl)-1-methylpyridin-2(1H)-one]",potentiation of activity of combination agents leading to inhibition of colony forming activity,[1],significant potentiation
same,tumor growth inhibition,MIA PaCa-2 xenograft,59%
"CO[C@]1(C)C(=O)N(C)c2cc3c(N[C@H](C)c4cc(N)cc(C(F)(F)F)c4)nc(C)nc3cc21 [Compound 7, (S)-4-(((R)-1-(3-amino-5-(trifluoromethyl)phenyl)ethyl)amino)-8-methoxy-2,6,8-trimethyl-6,8-dihydro-7H-pyrrolo[2,3-g]quinazolin-7-one]",inhibition in tumor growth,[4]; Compound 7 5 mg/kg q.d.,30.40%
same,inhibition in tumor growth,[4]; Compound 7 10 mg/kg q.d.,43.42%
same,inhibition in tumor growth,[4]; Compound 7 20 mg/kg q.d.,52.71%
same,potentiation of activity of combination agents leading to inhibition of colony forming activity,[1],significant potentiation
same,inhibition in tumor growth,[5],39.82%
same,inhibition in tumor growth,[6],32.86%
"Nc1nc2cc(CCC3=C[C@@H](n4ccc5c(N)ncnc54)[C@H](O)[C@@H]3O)cc(F)c2cc1Cl [Compound 24 of WO 2019116302, (1S,2R,5R)-3-(2-(2-amino-3-chloro-5-fluoroquinolin-7-yl)ethyl)-5-(4-amino-7H-pyrrolo[2,3-d]pyrimidin-7-yl)cyclopent-3-ene-1,2-diol, reference compound]",tumor growth inhibition,[2],52%
same,tumor growth inhibition,MIA PaCa-2 xenograft,73%
"Cc1ccc(NC(=O)c2ccnc(C(F)(F)F)c2)cc1-c1cc(OCCO)nc(N2CCOCC2)c1 [LXH254, N-(3-(2-(2-hydroxyethoxy)-6-morpholinopyridin-4-yl)-4-methylphenyl)-2-(trifluoromethyl)isonicotinamide, reference compound]",inhibition in tumor growth,[5],34.96%
